Experimental findings from ChEMBL document CHEMBL1137624, “Synthesis and characterization of pyrrolidine derivatives as potent agonists of the human melanocortin-4 receptor” (Bioorg Med Chem Lett, 2007) are described below.

The target of data set [1] is T1, Melanocortin receptor 4 (Homo sapiens, UniProt P32245). Kind of data set: Intrinsic activity at human MC4 receptor expressed in CHO cells assessed as cAMP accumulation relative to alpha-MSH. It is filed as functional, cell-based.
Data set [2] has as its target T1, Melanocortin receptor 4. As to the kind of experiment: Displacement of [125I]NDP-MSH from human MC4 receptor expressed in HEK293 cells. The format is cell-based. (In general: Displacement assays read how much labelled ligand stays bound in the presence of the test substance.)
For data set [3], the target named is T1, Melanocortin receptor 4. Kind of data set: Agonist activity at human MC4 receptor expressed in CHO cells assessed as cAMP accumulation by ELISA. It is filed as functional, cell-based.
In data set [4] the test system is Rattus norvegicus. Kind of data set: Decrease in cumulative food intake in high-fat diet fed CD rat at 5 mg/kg, ip after 1 to 6 hrs. The format is functional, organism-based. Details: dose 5 mg/kg.
A short description of data set [5]: AUC in rat at 10 mg/kg, po. The format is ADME, organism-based. Also noted: dose 10 mg/kg, route oral. The following applies: plasma.
Data set [6] in a line: Plasma clearance in rat at 2.5 mg/kg, iv. It is filed as ADME, organism-based. Also noted: dose 2.5 mg/kg, route intravenous.
Data set [7] deals with Melanocortin receptor 3 (Homo sapiens, UniProt P41968). Kind of data set: Binding affinity at human MC3 receptor.
Data set [8] in a line: Cmax in rat at 10 mg/kg, po after 3 hrs. Also noted: dose 10 mg/kg, route oral. The format is ADME, organism-based. Particulars: in vivo.
Data set [9] can be described thus: Half life in rat at 2.5 mg/kg, iv. The format is ADME, organism-based. Also noted: dose 2.5 mg/kg, route intravenous. Particulars: in vivo.
Data set [10] is described as follows: Apparent permeability across apical to basolateral side of Caco-2 cells. It is filed as ADME, cell-based. Particulars: human. A general note: Caco-2 monolayers are a common model of the intestinal barrier.
For data set [11], the species on record is Rattus norvegicus. As to the kind of experiment: Decrease in cumulative food intake in high-fat diet fed CD rat after 24 hrs. The format is functional, organism-based.
Data set [12] is described as follows: Concentration in rat brain at 2.5 mg/kg, iv after 4 hrs. The format is ADME, organism-based. Details: dose 2.5 mg/kg, route intravenous. Particulars: read-out: Drug uptake.
For data set [13], the system named is Caco-2. As to the kind of experiment: Ratio of permeability from […] side of Caco-2 cells. It is filed as ADME, cell-based. The following applies: human.
Data set [14] has as its target Melanocortin receptor 5 (Homo sapiens, UniProt P33032). Kind of data set: Binding affinity at human MC5 receptor.
Data set [15] in a line: Volume of distribution in rat at 2.5 mg/kg, iv. The format is ADME, organism-based. Details: dose 2.5 mg/kg, route intravenous. The following applies: in vivo.
Data set [16] in a line: Oral bioavailability in rat at 10 mg/kg, po. It is filed as ADME, organism-based. Particulars: in vivo.
Data set [17] can be described thus: Concentration in rat brain at 2.5 mg/kg, iv after 1 hr. It is filed as ADME, organism-based. Details: dose 2.5 mg/kg, route intravenous. The following applies: read-out: Drug uptake.
For data set [18], the system named is Rattus norvegicus. Kind of data set: Decrease in cumulative food intake in high-fat diet fed CD rat at 30 mg/kg, ip after 1 to 6 hrs. Also noted: dose 30 mg/kg. The format is functional, organism-based.
A short description of data set [19]: Distribution coefficient, log D by shake flake method. The format is physicochemical. Particulars: octanol/water.
Data set [20] addresses T2, Melanocyte-stimulating hormone receptor (Homo sapiens, UniProt Q01726). Kind of data set: Binding affinity at human MC1 receptor.
Target sequence in this assay (Q01726 whole entry): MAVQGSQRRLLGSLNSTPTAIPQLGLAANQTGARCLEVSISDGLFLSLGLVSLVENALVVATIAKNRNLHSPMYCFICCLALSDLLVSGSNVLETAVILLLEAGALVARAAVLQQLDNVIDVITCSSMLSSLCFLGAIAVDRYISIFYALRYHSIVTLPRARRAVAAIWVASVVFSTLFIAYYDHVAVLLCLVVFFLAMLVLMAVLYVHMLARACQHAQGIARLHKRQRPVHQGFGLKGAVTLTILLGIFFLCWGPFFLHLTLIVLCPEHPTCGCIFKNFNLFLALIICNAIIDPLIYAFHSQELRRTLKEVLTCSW
Data set [21] in a line: Ratio of drug level in brain to plasma in rat at 2.5 mg/kg, iv. It is filed as ADME, organism-based. Details: dose 2.5 mg/kg, route intravenous. Particulars: read-out: BPR.
Data set [22] concerns the target T1, Melanocortin receptor 4. Kind of data set: Antagonist activity at human MC4 receptor expressed in CHO cells assessed as inhibition of alpha-MSH-stimulated of cAMP production by ELISA. It is filed as functional, cell-based. A general note: Changes in cAMP serve as a functional read-out for many G protein-coupled receptors.
The target of data set [23] is T2, Melanocyte-stimulating hormone receptor. Kind of data set: Binding affinity at human MC1 receptor at 10 uM.
Target sequence in this assay (Q01726 whole entry, looked up): as the sequence (Q01726 whole entry) above

The source made the active and inactive calls. No cut-off for these calls is given here.

T1 sequence (P32245 whole entry): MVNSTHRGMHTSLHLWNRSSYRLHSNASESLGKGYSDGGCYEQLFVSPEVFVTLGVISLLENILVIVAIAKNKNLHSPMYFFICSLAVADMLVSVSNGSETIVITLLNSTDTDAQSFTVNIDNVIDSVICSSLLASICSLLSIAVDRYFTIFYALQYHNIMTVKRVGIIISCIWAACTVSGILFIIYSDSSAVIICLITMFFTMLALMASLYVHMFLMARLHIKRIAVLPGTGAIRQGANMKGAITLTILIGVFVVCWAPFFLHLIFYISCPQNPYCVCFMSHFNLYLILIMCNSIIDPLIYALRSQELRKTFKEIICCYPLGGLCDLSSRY
Chain of Melanocortin receptor 5 (P33032 whole entry): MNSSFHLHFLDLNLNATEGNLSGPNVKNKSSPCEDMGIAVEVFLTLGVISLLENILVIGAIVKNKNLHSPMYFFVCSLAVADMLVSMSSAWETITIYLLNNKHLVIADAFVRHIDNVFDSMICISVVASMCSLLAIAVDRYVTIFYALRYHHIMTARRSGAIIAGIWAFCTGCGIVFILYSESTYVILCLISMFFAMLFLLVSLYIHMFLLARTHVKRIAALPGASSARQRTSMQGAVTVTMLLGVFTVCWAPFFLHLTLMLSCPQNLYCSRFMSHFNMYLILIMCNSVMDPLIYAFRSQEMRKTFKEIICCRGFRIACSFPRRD
Chain of Melanocortin receptor 3 (P41968 whole entry): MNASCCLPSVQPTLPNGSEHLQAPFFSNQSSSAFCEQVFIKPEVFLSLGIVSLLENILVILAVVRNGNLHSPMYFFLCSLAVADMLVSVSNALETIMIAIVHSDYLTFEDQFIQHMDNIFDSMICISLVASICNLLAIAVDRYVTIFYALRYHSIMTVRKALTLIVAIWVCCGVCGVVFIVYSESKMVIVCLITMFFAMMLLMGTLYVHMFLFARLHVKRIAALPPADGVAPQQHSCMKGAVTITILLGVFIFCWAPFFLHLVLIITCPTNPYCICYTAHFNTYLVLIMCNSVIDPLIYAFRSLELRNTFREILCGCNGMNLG

In the case of `CC(C)CN1C[C@@H](C(=O)N2CCN(c3c(F)cccc3[C@@H](N)C(C)C)CC2)[C@H](c2ccc(Cl)cc2)C1`, the Intrinsic activity in data set [1] was found to be 52%. Also, in data set [2], the inhibitory constant (Ki) stood at 43 nM. In data set [3], the EC50 came to 1400 nM.
The matching figures for `COc1ccc([C@@H]2CN(C(C)C)C[C@H]2C(=O)N2CCN(c3ccc(C(F)(F)F)cc3[C@@H](N)CC(C)C)CC2)cc1`: 67%, 67 nM and 450 nM.
With `CCNC(C)Cc1cccc(C(F)(F)F)c1` (stereo unspecified), the outcome in [4] was Active.
For `Cc1ccc(N2CCN(C(=O)[C@@H]3CN(C4CCOCC4)C[C@H]3c3ccc(Cl)cc3)CC2)c([C@@H](N)C(C)C)c1`, in data set [5], the AUC is 154 ng·h/mL. For the same compound, in data set [6], the clearance was 118 mL/min/kg. Also, the Ki in data set [7] was determined as 1600 nM; in data set [14] it was 240 nM; in data set [2], 11 nM; in [20], 3350 nM. The peak concentration (Cmax) in data set [8] amounted to 16 ng/mL. Further, the half-life in data set [9] is 27 h. Besides, the Intrinsic activity in data set [1] turned out to be 105%. Besides, in [10], the apical-to-basolateral permeability (Papp A→B) turned out to be 0.8 ×10⁻⁶ cm/s. The Activity entry in data set [11] is “Dose-dependent effect”. In addition, the concentration at 4 h in [12] is 32 ng/g. Also, the Ratio in data set [13] is 25. In data set [15], this compound had a Vd of 270 L/kg. Moreover, in data set [16], the bioavailability came out at 22%. Besides, the concentration at 1 h in data set [17] stood at 5 ng/g. In data set [18], the outcome was Active. The logD in [19] amounted to 1.8. Besides, the EC50 in data set [3] stood at 24 nM. The Kp in data set [21] was found to be 0.7.
In the case of `Cc1ccc(N2CCN(C(=O)[C@@H]3CN(C4CCN(CC(C)C)CC4)C[C@H]3c3ccc(Cl)cc3)CC2)c([C@@H](N)C(C)C)c1`, the Intrinsic activity in [1] came to 1%. The compound also returned a Ki in [2] of 5.4 nM. Also, in data set [22], the IC50 was 1800 nM.
`Cc1ccc(N2CCN(C(=O)[C@H]3CN(C4CCOCC4)C[C@@H]3c3ccc(Cl)cc3)CC2)c([C@@H](N)C(C)C)c1`: the Ki in data set [7] is 1400 nM; in data set [14], 380 nM; in data set [2], 8.6 nM. Moreover, in data set [1], the Intrinsic activity amounted to 18%. Also, the IC50 in data set [22] was 65 nM. This compound also showed an inhibition in data set [23] of 33%.
Turning to `CC(=O)N1C[C@@H](C(=O)N2CCN(c3ccc(C(F)(F)F)cc3[C@@H](N)CC(C)C)CC2)[C@H](c2ccc(Cl)cc2)C1`, the Intrinsic activity in data set [1] turned out to be 72%. In addition, the Ki in data set [2] was 66 nM. Besides, in [3], the concentration for a half-maximal effect (EC50) was found to be 1900 nM.
With `CC(C)[C@H](N)c1cccc(F)c1N1CCN(C(=O)[C@@H]2CN(C3CCCC3)C[C@H]2c2ccc(Cl)cc2)CC1`, the Intrinsic activity in data set [1] came out at 80%. In [2], this compound returned a Ki of 26 nM. For the same compound, in data set [3], the EC50 came to 400 nM.
With `COCC(C)N1C[C@@H](C(=O)N2CCN(c3ccc(C)cc3[C@@H](N)C(C)C)CC2)[C@H](c2ccc(Cl)cc2)C1` (stereo partly specified), the Intrinsic activity in data set [1] was determined as 36%. In data set [2], this compound gave a Ki of 64 nM.
`CC(C)C[C@H](N)c1cc(C(F)(F)F)ccc1N1CCN(C(=O)[C@@H]2CN(S(C)(=O)=O)C[C@H]2c2ccc(Cl)cc2)CC1`: the Intrinsic activity in [1] is 34%. For the same compound, the Ki in data set [2] came out at 95 nM.
Consider `CC(C)C[C@H](N)c1cc(C(F)(F)F)ccc1N1CCN(C(=O)[C@@H]2CN(Cc3ccccc3)C[C@H]2c2ccc(Cl)cc2)CC1`, for which the Intrinsic activity in [1] worked out at 52%. The same compound had a Ki in [2] of 120 nM. Further, the concentration giving a half-maximal response (EC50) in data set [3] came to 7300 nM.
Turning to `Cc1ccc(N2CCN(C(=O)[C@@H]3CN(C(=O)C4CCC4)C[C@H]3c3ccc(Cl)cc3)CC2)c([C@@H](N)C(C)C)c1`, the Intrinsic activity in [1] was determined as 22%. For the same compound, affinity in [2] was put at a Ki of 78 nM.

As usually defined, the Ki is the dissociation constant of the complex between target and ligand, obtained from inhibition or displacement. A high value points to a looser hold on the target. The term EC50 denotes the midpoint of the concentration-response curve. The term AUC denotes the area under the concentration-time curve, a measure of exposure. Higher therefore signals more exposure. The term clearance denotes a measure of how efficiently the substance is removed, as volume per time. As a reminder, the Cmax is the peak of the concentration-time curve. For orientation: half-life means the time in which the quantity being followed falls by half. By Papp A→B is commonly meant the apparent permeability from the apical to the basolateral side of a cell layer. By Vd is commonly meant a proportionality between amount in the body and measured concentration, not a real space. Low readings indicate confinement near the circulation, high ones extensive tissue distribution. One may read the bioavailability as the share of a dose that reaches the circulation, judged against a reference dose that is usually intravenous. A high value points to good availability. The term logD denotes lipophilicity at a set pH, counting ionised and neutral species. One may read the IC50 as the point on the concentration scale where inhibition reaches its midpoint. As a reminder, the inhibition is the relative decrease from the control value, in per cent. Low readings indicate a weak effect, high ones a strong effect.
